Data reported in US12228565B2, “Blood cell lysis compositions and uses thereof” (Instrumentation Laboratory Company, priority 2021, dated 2025).

What was measured:
[1] = Foam height of surfactant in water based solution (Ross-Miles method); assay type: physicochemical
Description: (§1) Surfactants used for lysing, including the secondary alcohol ethoxylates described herein, may lower surface tension in a liquid blood sample and induce foam formation in the blood sample as air is mixed into the blood sample. Foam is detrimental to optical absorbance measurements because it causes additional light scattering. In some implementations, surfactants for performing cell lysis in CO-Oximetry may reduce or minimize foam formation and/or produce foam that dissipates quickly prior to spectral measurements. […] (Celsius). […] Standard measurements of the foam height may be taken, for example, five minutes after addition of the surfactant to a water based solution. The foam height produced by a secondary alcohol ethoxylate may be measured, for example, using the Ross-Miles method.
(§2) Triton-X100 is a control (or reference) surfactant against which the secondary alcohol ethoxylate surfactants are compared. […] In Table 1 below, […], which is a property of the surfactant that indicates/relates to the effectiveness of the material as a surfactant.

[2] = Surface tension of surfactant; assay type: physicochemical
Description: as §1, §2

whole blood cells = conditions: after 1 to 2 seconds; composition of Table 2, surfactant 9-14%
Description: The blood sample analyzed by CO-Oximeter system 5 may be a whole blood sample that is lysed using one or more of the blood cell lysing compositions described herein. More specifically, in example CO-Oximeter 5, a blood cell lysis composition and a blood sample are introduced into a mixing chamber—e.g., through a mixing valve—in an optical cell 7. Movement of the blood sample and blood cell lysis composition through the mixing chamber under simultaneous actuation implemented by a solenoid causes the blood sample and lysis composition to simultaneously mix and lyse the red blood cells. The resulting mixture constitutes a lysed blood sample that is usable to obtain optical absorbance measurements by the CO-Oximeter with a reduction or elimination of scattering effects caused by red blood cells.
In an example testing procedure, secondary alcohol ethoxylate1 and secondary alcohol ethoxylate2 were included in the example blood cell lysis composition described with respect to Table 2 below at concentrations of 9% to 14% and tested in a CO-Oximetry system of the type described herein.

Tergitol™ Type 15-S-9 [secondary alcohol ethoxylate2]
Foam Height—5 minutes (0.1 weight % actives) [1]: 43 mm
Foam height—Initial (0.1 weight % actives) [1]: 124 mm
Surface Tension (1% actives, 25° C.) [2]: 30 dynes/cm
lysis of whole blood cells (whole blood cells): about 100%

Triton X-100 [reference compound]
Foam Height—5 minutes (0.1 weight % actives) [1]: 107 mm
Foam height—Initial (0.1 weight % actives) [1]: 128 mm
Surface Tension (1% actives, 25° C.) [2]: 33 dynes/ dynes/cm
